Experimental findings from ChEMBL document CHEMBL1212816, “Proanthocyanidins from the leaves of Machilus philippinensis” (J Nat Prod, 2010) are described below.

Usually IC50 stands for the concentration that inhibits the measured activity by half. The low end stands for higher potency, the high end for lower potency.

The structures appear in SMILES notation. Bounds are passed on as bounds.

The nature of the assay: Inhibition of Bacillus stearothermophilus alpha glucosidase-4. On the set-up: species or system Geobacillus stearothermophilus.

With `Oc1cc(O)c2c(c1)O[C@@]1(c3ccc(O)c(O)c3)Oc3cc(O)c4c(c3[C@@H]2[C@H]1O)O[C@H](c1ccc(O)c(O)c1)[C@H](O)[C@H]4c1c(O)cc(O)c2c1O[C@H](c1ccc(O)c(O)c1)[C@H](O)C2` [CINNAMTANNIN B1], the IC50 was greater than 100 µM. In the case of `Oc1cc(O)c2c(c1)O[C@H](c1ccc(O)c(O)c1)[C@H](O)C2` [(-)-EPICATECHIN], the 50% inhibitory concentration (IC50) is greater than 100 µM. Then `Oc1cc(O)c2c(c1)O[C@H](c1ccc(O)c(O)c1)[C@H](O)[C@H]2c1c(O)cc(O)c2c1O[C@H](c1ccc(O)c(O)c1)[C@H](O)[C@H]2c1c(O)c2c(c3c1O[C@]1(c4ccc(O)c(O)c4)Oc4cc(O)cc(O)c4[C@H]3[C@H]1O)O[C@H](c1ccc(O)c(O)c1)[C@H](O)[C@H]2c1c(O)cc(O)c2c1O[C@H](c1ccc(O)c(O)c1)[C@H](O)C2`, with 31.3 µM. Compound `Oc1cc(O)c2c(c1)O[C@@]1(c3ccc(O)c(O)c3)Oc3cc(O)c4c(c3[C@@H]2[C@H]1O)O[C@@H](c1ccc(O)c(O)c1)[C@H](O)[C@H]4c1c(O)cc(O)c2c1O[C@H](c1ccc(O)c(O)c1)[C@H](O)C2` [AESCULTITANNIN B] registered an IC50 of 3.5 µM. Compound `Oc1cc(O)c2c(c1)O[C@H](c1ccc(O)c(O)c1)[C@H](O)[C@H]2c1c(O)c2c(c3c1O[C@]1(c4ccc(O)c(O)c4)Oc4cc(O)cc(O)c4[C@H]3[C@H]1O)O[C@H](c1ccc(O)c(O)c1)[C@H](O)[C@H]2c1c(O)cc(O)c2c1O[C@H](c1ccc(O)c(O)c1)[C@H](O)C2` showed an IC50 greater than 100 µM. For `C[C@H]1O[C@H](O[C@H]2[C@H](O)[C@@H](O)[C@@H](O[C@H]3[C@H](O)[C@@H](O)C(O)O[C@@H]3CO)O[C@@H]2CO)[C@H](O)[C@@H](O)[C@@H]1N[C@H]1C=C(CO)[C@@H](O)[C@H](O)[C@H]1O` (some centres undefined) [ACARBOSE] the value was 0.049 µM; for `Oc1cc(O)c2c(c1)O[C@H](c1ccc(O)c(O)c1)[C@H](O)[C@H]2c1c(O)cc2c(c1O)[C@@H]1c3c(cc(O)c4c3O[C@H](c3ccc(O)c(O)c3)[C@H](O)[C@H]4c3c(O)cc(O)c4c3O[C@H](c3ccc(O)c(O)c3)[C@H](O)C4)O[C@](c3ccc(O)c(O)c3)(O2)[C@@H]1O`, 10.5 µM. The compound `Oc1cc(O)c2c(c1)O[C@H](c1ccc(O)c(O)c1)[C@H](O)[C@H]2c1c(O)cc(O)c2c1O[C@H](c1ccc(O)c(O)c1)[C@H](O)[C@H]2c1c(O)cc(O)c2c1O[C@H](c1ccc(O)c(O)c1)[C@H](O)[C@H]2c1c(O)c2c(c3c1O[C@]1(c4ccc(O)c(O)c4)Oc4cc(O)cc(O)c4[C@H]3[C@H]1O)O[C@H](c1ccc(O)c(O)c1)[C@H](O)[C@H]2c1c(O)cc(O)c2c1O[C@H](c1ccc(O)c(O)c1)[C@H](O)C2` gave an IC50 of 18.4 µM.

Consider `Oc1cc(O)c2c(c1)O[C@@]1(c3ccc(O)c(O)c3)Oc3cc(O)c4c(c3[C@@H]2[C@H]1O)O[C@H](c1ccc(O)c(O)c1)[C@H](O)[C@H]4c1c(O)cc(O)c2c1O[C@H](c1ccc(O)c(O)c1)[C@@H](O)C2` [CINNAMTANNIN D1], for which the IC50 was 92.9 µM.
